Here are results for 19 compounds from patent US20250179088A9 (ZYMEWORKS BC INC., priority 2020, published 2025).

As usually defined, the EC50 is the concentration giving half of the maximal effect. A lower EC50 goes with higher potency in that assay.

One assay deals with T1, TLR7 (Homo sapiens, UniProt Q9NYK1).
T1 sequence (Q9NYK1 27-1049): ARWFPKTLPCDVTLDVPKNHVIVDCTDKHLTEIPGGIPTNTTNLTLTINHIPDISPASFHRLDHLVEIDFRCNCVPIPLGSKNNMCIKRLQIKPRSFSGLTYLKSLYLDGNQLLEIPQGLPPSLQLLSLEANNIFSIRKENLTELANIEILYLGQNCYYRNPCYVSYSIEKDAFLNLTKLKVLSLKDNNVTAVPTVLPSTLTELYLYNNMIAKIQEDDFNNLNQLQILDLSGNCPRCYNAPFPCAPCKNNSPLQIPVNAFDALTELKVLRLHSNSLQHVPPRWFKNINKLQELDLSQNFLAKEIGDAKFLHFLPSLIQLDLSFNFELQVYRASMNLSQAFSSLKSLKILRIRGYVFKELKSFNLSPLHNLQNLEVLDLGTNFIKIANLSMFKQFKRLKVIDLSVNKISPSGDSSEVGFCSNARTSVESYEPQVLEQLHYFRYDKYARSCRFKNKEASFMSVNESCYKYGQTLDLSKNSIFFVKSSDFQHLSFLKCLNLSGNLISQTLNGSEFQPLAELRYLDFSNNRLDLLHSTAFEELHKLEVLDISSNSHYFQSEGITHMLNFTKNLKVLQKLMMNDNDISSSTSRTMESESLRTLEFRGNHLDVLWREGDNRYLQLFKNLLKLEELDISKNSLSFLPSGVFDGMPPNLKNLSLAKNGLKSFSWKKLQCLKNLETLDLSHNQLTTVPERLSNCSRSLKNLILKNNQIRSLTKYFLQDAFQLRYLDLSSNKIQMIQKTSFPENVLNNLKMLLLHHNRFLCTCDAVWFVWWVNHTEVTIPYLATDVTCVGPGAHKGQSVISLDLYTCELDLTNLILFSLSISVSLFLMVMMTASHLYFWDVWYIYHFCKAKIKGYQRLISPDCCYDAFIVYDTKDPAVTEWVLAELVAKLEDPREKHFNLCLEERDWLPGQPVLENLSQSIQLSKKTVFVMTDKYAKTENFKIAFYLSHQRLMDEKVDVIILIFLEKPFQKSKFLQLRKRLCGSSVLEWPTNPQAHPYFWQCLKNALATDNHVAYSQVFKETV
The assay is described as follows: Reporter gene assay, HEK-Blue TLR7 reporter cells (SEAP).

The next assay addresses T2, TLR8 (Homo sapiens, UniProt Q9NR97).
T2 sequence (Q9NR97 27-1041): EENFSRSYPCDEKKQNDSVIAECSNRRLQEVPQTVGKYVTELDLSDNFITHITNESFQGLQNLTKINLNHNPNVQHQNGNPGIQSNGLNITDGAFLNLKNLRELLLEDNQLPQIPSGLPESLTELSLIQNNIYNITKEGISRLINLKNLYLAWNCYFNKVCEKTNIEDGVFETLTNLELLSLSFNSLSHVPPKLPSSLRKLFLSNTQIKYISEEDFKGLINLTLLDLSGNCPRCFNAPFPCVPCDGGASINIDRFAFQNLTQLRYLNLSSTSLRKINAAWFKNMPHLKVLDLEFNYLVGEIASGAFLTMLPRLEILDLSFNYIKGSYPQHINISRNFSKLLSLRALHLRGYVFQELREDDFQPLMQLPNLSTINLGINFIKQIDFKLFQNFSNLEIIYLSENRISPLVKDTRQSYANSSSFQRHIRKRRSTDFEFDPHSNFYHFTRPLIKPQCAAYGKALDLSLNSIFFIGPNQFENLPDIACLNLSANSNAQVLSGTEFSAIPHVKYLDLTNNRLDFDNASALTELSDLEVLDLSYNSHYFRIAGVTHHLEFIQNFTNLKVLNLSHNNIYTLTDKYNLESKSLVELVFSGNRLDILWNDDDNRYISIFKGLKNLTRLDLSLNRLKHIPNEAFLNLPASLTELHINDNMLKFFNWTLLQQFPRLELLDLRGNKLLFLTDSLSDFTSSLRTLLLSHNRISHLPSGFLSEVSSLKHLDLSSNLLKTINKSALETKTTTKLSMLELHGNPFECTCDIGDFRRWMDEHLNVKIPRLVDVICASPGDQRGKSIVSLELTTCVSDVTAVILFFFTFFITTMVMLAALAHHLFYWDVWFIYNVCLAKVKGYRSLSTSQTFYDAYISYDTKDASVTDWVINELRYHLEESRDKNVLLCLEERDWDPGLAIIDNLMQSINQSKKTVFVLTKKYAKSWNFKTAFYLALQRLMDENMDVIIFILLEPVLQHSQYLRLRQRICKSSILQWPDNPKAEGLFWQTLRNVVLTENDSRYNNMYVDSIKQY
The assay is described as follows: Reporter gene assay, HEK-Blue TLR8 reporter cells (SEAP). A general note: A reporter such as luciferase makes a cellular process visible.

For the next assay, the system named is PBMCs. The experiment in a line: PBMC assay, IL-6 release (HTRF). It counts as cell-based. The settings on record: PBMCs from healthy donors, overnight, IL-6 induction by HTRF, average of quadruplicate. On the procedure: Whole peripheral blood was obtained from healthy donors. PBMCs were isolated from peripheral blood by density gradient centrifugation. […] The plasma layer containing PBMCs was poured into a new tube and washed twice. Isolated PBMCs were either used fresh or thawed from previously frozen. 1×10^5 PBMCs were cultured with titrating concentrations of compounds of Formula I overnight followed by assaying for cytokines by homogeneous time resolved fluorescence (HTRF).
On the technique in general: Time-resolved FRET reads energy transfer from a long-lived donor to a nearby acceptor.

Structures are written as SMILES.

Description for TLR7: (§1) 3×10^4 HEK-Blue™ TLR7 or 3×10^4 TLR8 reporter cells (InvivoGen, San Diego, CA) were treated with titrated (4-fold) amounts of test compound. […] Cells were incubated overnight at 37° C. and 5% CO2, then absorbance (620 and 655 nm) was read on a Synergy™ H1 microplate reader.
Description for TLR8: as §1

Regarding `CCCCc1nc2c(N)nc3ccsc3c2n1Cc1ccc(CN2CCCCC2)cc1` [Compound 151, 2-butyl-1-(4-(piperidin-1-ylmethyl)benzyl)-1H-imidazo[4,5-d]thieno[3,2-b]pyridin-4-amine], the EC50 is 3.8 nM at TLR7, over 1000 nM at TLR8 and 20 nM in the assay with PBMCs.
The matching figures for `CCCCc1nc2c(N)nc3ccsc3c2n1Cc1ccc(CN(CCN(CCCC)CCCC)CCN(CCCC)CCCC)cc1` [Compound 152, N^1-(4-((4-amino-2-butyl-1H-imidazo[4,5-d]thieno[3,2-b]pyridin-1-yl)methyl)benzyl)-N^2,N^2-dibutyl-N^1-(2-(dibutylamino)ethyl)ethane-1,2-diamine]: 67 nM, over 1000 nM and 59 nM.
As to `CCCCc1nc2c(N)nc3ccsc3c2n1Cc1ccc(CNc2nnc[nH]2)cc1` [Compound 272, 1-(4-(((4H-1,2,4-triazol-3-yl)amino)methyl)benzyl)-2-butyl-1H-imidazo[4,5-d]thieno [3,2-b]pyridin-4-amine], the EC50 on TLR7 is 33 nM; at TLR8, over 1000 nM.
The matching figures for `CCCCc1nc2c(N)nc3ccsc3c2n1Cc1ccc(CN2CCN(CCc3ccccn3)CC2)cc1` [Compound 275, 2-butyl-1-(4-((4-(2-(pyridin-2-yl)ethyl)piperazin-1-yl)methyl)benzyl)-1H-imidazo[4,5-d]thieno[3,2-b]pyridin-4-amine]: over 1000 nM and over 1000 nM.
The matching figures for `CCCCc1nc2c(N)nc3ccsc3c2n1Cc1ccc(CN(CCC)CCC)cc1` [Compound 277, 2-butyl-1-(4-((dipropylamino)methyl)benzyl)-1H-imidazo[4,5-d]thieno[3,2-b]pyridin-4-amine]: under 1 nM and 404 nM.
The matching figures for `CCCCc1nc2c(N)nc3ccsc3c2n1Cc1ccc(C[n+]2ccccc2)cc1` [Compound 279, 1-(4-((4-amino-2-butyl-1H-imidazo[4,5-d]thieno[3,2-b]pyridin-1-yl)methyl)benzyl) pyridin-1-ium]: under 1 nM and over 1000 nM.
With `CCOCc1nc2c(N)nc3ccsc3c2n1Cc1ccc(CN2CCNCC2)cc1` [Compound 289, 2-(ethoxymethyl)-1-(4-(piperazin-1-ylmethyl)benzyl)-1H-imidazo[4,5-d]thieno[3,2-b]pyridin-4-amine], the EC50 at TLR7 is 9 nM; on TLR8, over 1000 nM.
Turning to `CCOCc1nc2c(N)nc3ccsc3c2n1Cc1ccc(CN(CC)CC)cc1` [Compound 290, 1-(4-((diethylamino)methyl)benzyl)-2-(ethoxymethyl)-1H-imidazo[4,5-d]thieno[3,2-b]pyridin-4-amine], the 50% effective concentration (EC50) at TLR7 worked out at 4 nM; at TLR8, 1030 nM.
The matching figures for `CCOCc1nc2c(N)nc3ccsc3c2n1Cc1ccc(CNC2CC(F)(F)C2)cc1` [Compound 291, 1-(4-(((3,3-difluorocyclobutyl)amino)methyl)benzyl)-2-(ethoxymethyl)-1H-imidazo[4,5-d]thieno[3,2-b]pyridin-4-amine]: 14 nM and 1130 nM.
Turning to `CCOCc1nc2c(N)nc3ccsc3c2n1Cc1ccc(CN[C@H](CO)[C@@H](C)CC)cc1` [Compound 292, (2S,3S)-2-((4-((4-amino-2-(ethoxymethyl)-1H-imidazo[4,5-d]thieno[3,2-b]pyridin-1-yl)methyl)benzyl)amino)-3-methylpentan-1-ol], the 50% effective concentration (EC50) is 3 nM on TLR7 and 674 nM on TLR8.
The matching figures for `CCOCc1nc2c(N)nc3ccsc3c2n1Cc1ccc(CNCc2cc[nH]c2)cc1` [Compound 293, 1-(4-((((1H-pyrrol-3-yl)methyl)amino)methyl)benzyl)-2-(ethoxymethyl)-1H-imidazo [4,5-d]thieno[3,2-b]pyridin-4-amine]: 7 nM and over 1000 nM.
The matching figures for `CCCCc1nc2c(N)nc3ccsc3c2n1Cc1ccc(C[N+]23CCN(CC2)CC3)cc1` [Compound 295, 1-(4-((4-amino-2-butyl-1H-imidazo[4,5-d]thieno[3,2-b]pyridin-1-yl)methyl)benzyl)-1,4-diazabicyclo[2.2.2]octan-1-ium]: over 1000 nM and over 1000 nM.
For the compound `CCCCc1nc2c(N)nc3ccsc3c2n1Cc1ccc(CN[C@H](CO)[C@@H](C)CC)cc1` [Compound 296, (2S,3S)-2-((4-((4-amino-2-butyl-1H-imidazo[4,5-d]thieno[3,2-b]pyridin-1-yl)methyl)benzyl)amino)-3-methylpentan-1-ol], the EC50 at TLR7 is under 1 nM; on TLR8, 134 nM.
The matching figures for `CCCCc1nc2c(N)nc3ccsc3c2n1Cc1ccc(CN[C@H](C(=O)O)[C@@H](C)CC)cc1` [Compound 297, (4-((4-amino-2-butyl-1H-imidazo[4,5-d]thieno[3,2-b]pyridin-1-yl)methyl)benzyl)-L-isoleucine]: 676 nM and over 1000 nM.
The matching figures for `CCCCc1nc2c(N)nc3ccsc3c2n1Cc1ccc(CN[C@H](C(=O)O)[C@@H](C)O)cc1` [Compound 298, (4-((4-amino-2-butyl-1H-imidazo[4,5-d]thieno[3,2-b]pyridin-1-yl)methyl)benzyl)-L-threonine]: 159 nM and over 1000 nM.
Regarding `CCCCc1nc2c(N)nc3ccsc3c2n1Cc1ccc(CN(CC(=O)O)CC(=O)O)cc1` [Compound 299, 2,2′-((4-((4-amino-2-butyl-1H-imidazo[4,5-d]thieno[3,2-b]pyridin-1-yl)methyl)benzyl)azanediyl)diacetic acid], the EC50 was 446 nM at TLR7 and over 1000 nM at TLR8.
As for `CCCCc1nc2c(N)nc3ccsc3c2n1Cc1ccc(CN2CCC[C@H]2C(=O)O)cc1` [Compound 300, (4-((4-amino-2-butyl-1H-imidazo[4,5-d]thieno[3,2-b]pyridin-1-yl)methyl)benzyl)-L-proline], the concentration for a half-maximal effect (EC50) on TLR7 and on TLR8 was over 1000 nM in each case.
`CCCCc1nc2c(N)nc3ccsc3c2n1Cc1ccc(CNCCC(=O)N[C@@H](Cc2cnc[nH]2)C(=O)O)cc1` [Compound 301, (3-((4-((4-amino-2-butyl-1H-imidazo[4,5-d]thieno[3,2-b]pyridin-1-yl)methyl)benzyl)amino)propanoyl)-L-histidine]: the results for the concentration for a half-maximal effect (EC50) on TLR7 and at TLR8 were 348 nM and over 1000 nM, respectively.
The matching figures for `CCCCc1nc2c(N)nc3ccsc3c2n1Cc1ccc(CNCCCC[C@H](N)C(=O)O)cc1` [Compound 305, N^6-(4-((4-amino-2-butyl-1H-imidazo[4,5-d]thieno[3,2-b]pyridin-1-yl)methyl)benzyl)-L-lysine]: 108 nM and over 1000 nM.
